Measured values as given in patent US9963462B2 (priority 2015, dated 2018).

Legend:
[1] = biological target: SNAP-hSPR (sepiapterin reductase, SPR) (Homo sapiens, UniProt P35270); experiment: biochemical; assay type: binding; conditions: terbium labelled SNAP-hSPR / SSZ labelled SNAP-EGFP; read-out: hTR-FRET IC50
Description: TR-FRET Assay: A TR-FRET (homogeneous, time-resolved, fluorescence resonance energy transfer) assay was used to assess activity of compounds following standard assay conditions. […] Compounds were screened at different concentrations and IC50 values calculated.
Terbium labelled SNAP-hSPR and SSZ (sulfasalazine) labelled SNAP-EGFP were used as the protein pair in this assay. Compounds were screened at different concentrations, and 1050 and Kd values calculated.

[2] = system: BH4 levels in SK-N-BE (2) cells; experiment: SKN-N-BE (2) cellular assay, BH4 levels by LC-MS; assay type: cell-based; conditions: Homo sapiens, SKNBE2, read-out: SK-N-BE(2) IC50, SK-N-BE (2) cells, BH4 levels by LC-MS
Description: SKN-N-BE(2) Cellular Assay: SK-N-BE (2) cells were seeded in sterile, 96-well plates and incubated for 12-24 hours at 37° C. with 5% CO2 supply. Media was removed and fresh DMEM/F-12 media (containing Glutamine & Pen/Strep but no FBS) was added. Compounds (at different concentrations) were added to different wells. The plates were then incubated for 6-48 hours at 37° C. with 5% CO2 supply. Plates were then centrifuged and the supernatant was removed. The plates were then optionally washed once with PBS. They were then sealed and stored at −80° C. or immediately used. The cells were lysed and the level of BH4 was assessed by LC-MS.
Compounds were assayed for SPR inhibitory activity using a SKN-N-BE (2) cellular assay according to the following procedure. SK-N-BE (2) cells were seeded in sterile, 96-well plates and incubated for 12-24 hours at 37° C. with 5% CO2 supply. Media was removed and fresh DMEM/F-12 media (containing Glutamine & Pen/Strep but no FBS) was added. Compounds (at different concentrations) were added to different wells. The plates were then incubated for 6-48 hours at 37° C. with 5% CO2 supply. Plates were then centrifuged and the supernatant was removed. The plates were then optionally washed once with PBS. They were then sealed and stored at −80° C. or immediately used in the next step. The cells were lysed and the levels of BH4 were assessed by LC-MS.

[3] = system: BH4 production in human peripheral blood mononuclear cells (PBMCs); experiment: hPBMC assay, inhibition of BH4 production by LC-MS (anti-CD3/anti-CD28 stimulated); assay type: cell-based; conditions: PBMC, read-out: hPBMC IC50
Description: hPBMC Assay: PBMCs were either purchased or isolated from fresh human blood and used either as a fresh preparation or frozen for later use. The assay system was prepared by pre-treating the assay plates overnight with a solution containing anti-human CD3 antibody. Human PBMCs were suspended in assay medium and plated into the assay plates at a density of 1-4×10^5 cells per well. The desired concentration of the test compound was added to each well. A solution of human anti-CD28 antibody was also added to each well. Plates were incubated for 12-48 hours at 37° C. and 5% CO2. Assay plates were centrifuged for 5-15 minutes at 1-3000 RMP and supernatants were removed. The cells were lysed, sealed and used directly or frozen at −80° C. LC-MS was used to quantify the amount of inhibition of BH4 production.
PBMCs were either purchased or isolated from fresh human blood and used either as a fresh preparation or frozen for later use. The assay system was prepared by pre-treating the assay plates overnight with a solution containing anti-human CD3 antibody. Human PBMCs were suspended in assay medium and plated into the assay plates at a density of 1-4×10^5 cells per well. The desired concentration of the test compound was added to each well. A solution of human anti-CD28 antibody was also added to each well. Plates are incubated for 12-48 hours at 37° C. and 5% CO2. Assay plates were centrifuged for 5-15 minutes at 1-3000 RMP and supernatants were removed. The cells were lysed, sealed and used directly or frozen at −80° C.

[4] = system: neuropathic pain-like behaviors after spared nerve injury (SNI); experiment: Behavioral pharmacology model: spared nerve injury (SNI), paw withdrawal threshold, von Frey filaments; assay type: in vivo; conditions: rat, oral gavage, mechanical endpoint, 4 hrs
Description: (§1) Behavioral Pharmacology Model: Compounds were administered by oral gavage to rats that had undergone one of two nerve injury surgeries: spared nerve injury to injure two of the three peripheral branches of the sciatic nerve or chronic constriction injury of the sciatic nerve. Paw withdrawal thresholds to mechanical stimulation using calibrated von Frey filaments were used as measurement of neuropathic pain-like behaviors.
(§2) Compounds were tested in standard behavioral pharmacology models for pain in rats as described in the literature (see, e.g., Latremoliere et al., Neuron, 86:1393-1406 (2015); Tegeder et al., Nature Medicine, 12:1269-1277 (2006)). Compounds were administered by oral gavage to rats that had undergone one of two nerve injury surgeries: spared nerve injury to injure two of the three peripheral branches of the sciatic nerve (SNI, Decosterd et al., Pain, 87:149-158 (2000)) or chronic constriction injury of the sciatic nerve (CCI, Bennett et al., Pain, 33:87-107 (1988)). Paw withdrawal thresholds to mechanical stimulation using calibrated von Frey filaments were used as measurement of neuropathic pain-like behaviors.

[5] = system: neuropathic pain-like behaviors after chronic constriction injury (CCI); experiment: Behavioral pharmacology model: chronic constriction injury of the sciatic nerve (CCI), paw withdrawal threshold, von Frey filaments; assay type: in vivo; conditions: rat, oral gavage, mechanical endpoint, 4 hrs
Description: as §1, §2

SNAP-hSPR (sepiapterin reductase, SPR), sequence (P35270 whole entry): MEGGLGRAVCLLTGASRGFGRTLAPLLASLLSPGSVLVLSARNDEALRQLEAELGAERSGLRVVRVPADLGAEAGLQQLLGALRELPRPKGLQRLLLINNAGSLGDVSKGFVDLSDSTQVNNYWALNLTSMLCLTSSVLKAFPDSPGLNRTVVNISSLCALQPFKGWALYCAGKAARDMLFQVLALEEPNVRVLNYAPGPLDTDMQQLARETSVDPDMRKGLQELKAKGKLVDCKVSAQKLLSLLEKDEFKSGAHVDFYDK

Structure (SMILES): CCC(O)(C1CCN(C(=O)c2cnn(-c3nn4cccc4c(=O)[nH]3)c2C)CC1)C(F)(F)F (stereo not drawn) [Q-1052]
- IC50 [1]: 1 nM
- IC50 [2]: 44 nM
- IC50 [3]: 83 nM

Structure (SMILES): CCC1(C#N)CC12CCN(C(=O)c1cnn(-c3nn4cccc4c(=O)[nH]3)c1C)CC2 (stereo not drawn) [Q-1053]
- IC50 [1]: 1 nM
- IC50 [2]: 200 nM
- IC50 [3]: 230 nM

Structure (SMILES): Cc1c(C(=O)N2CCN(C(C)C(F)(F)F)CC2)cnn1-c1nc2c(c(=O)[nH]1)CCC2 (stereo not drawn) [Q-1054]
- IC50 [1]: 1 nM
- IC50 [2]: 28 nM
- IC50 [3]: 60 nM

Structure (SMILES): CCC(C#N)C1(O)CCN(C(=O)c2cnn(-c3nn4cccc4c(=O)[nH]3)c2C)CC1 (stereo not drawn) [Q-1055]
- IC50 [1]: 1 nM
- IC50 [2]: 700 nM
- IC50 [3]: 160 nM

Structure (SMILES): Cc1c(C(=O)N2CCC(c3nc(-c4ccccc4)cs3)CC2)cnn1-c1nc2c(c(=O)[nH]1)CCC2 [Q-1056]
- IC50 [1]: 3 nM
- IC50 [2]: 16 nM
- IC50 [3]: 55 nM

Structure (SMILES): Cc1c(C(=O)N2CCC3(CC2)CC3C(=O)N2CCCCC2)cnn1-c1nn2cccc2c(=O)[nH]1 (stereo not drawn) [Q-1057]
- IC50 [1]: 1 nM
- IC50 [2]: 100 nM
- IC50 [3]: 67 nM

Structure (SMILES): Cc1c(C(=O)N2CCC3(CC2)CC3C(=O)N2CCCCC2)cnn1-c1nc2c(c(=O)[nH]1)CCC2 (stereo not drawn) [Q-1058]
- IC50 [1]: 2 nM
- IC50 [2]: 93 nM
- IC50 [3]: 150 nM

Structure (SMILES): Cc1c(C(=O)N2CCC(F)(C#N)C2)cnn1-c1nn2cccc2c(=O)[nH]1 (stereo not drawn) [Q-1059]
- IC50 [1]: 2 nM
- IC50 [2]: 1300 nM
- IC50 [3]: 2100 nM

Structure (SMILES): Cc1c(C(=O)N2CCN(CCC(F)(F)F)CC2)cnn1-c1nn2cccc2c(=O)[nH]1 [Q-1060]
- IC50 [1]: 2 nM
- IC50 [2]: 200 nM
- IC50 [3]: 220 nM

Structure (SMILES): Cc1c(C(=O)N2CCC3(CC2)CC3C(=O)N2CCCC2)cnn1-c1nc2c(c(=O)[nH]1)CCC2 (stereo not drawn) [Q-1061]
- IC50 [1]: 3 nM
- IC50 [2]: 400 nM
- IC50 [3]: 210 nM

Structure (SMILES): Cc1c(C(=O)N2CCC(C(C#N)CCF)CC2)cnn1-c1nn2cccc2c(=O)[nH]1 (stereo not drawn) [Q-1062]
- IC50 [1]: 1 nM
- IC50 [2]: 100 nM
- IC50 [3]: 97 nM

Structure (SMILES): Cc1c(C(=O)N2CCC(C(C#N)CCF)CC2)cnn1-c1nc2c(c(=O)[nH]1)CCC2 (stereo not drawn) [Q-1063]
- IC50 [1]: 2 nM
- IC50 [2]: 55 nM
- IC50 [3]: 120 nM

Structure (SMILES): CCC(=C1CCN(C(=O)c2cnn(-c3nn4cccc4c(=O)[nH]3)c2C)CC1)C(F)(F)F [Q-1064]
- IC50 [1]: 2 nM
- IC50 [2]: 200 nM
- IC50 [3]: 220 nM

Structure (SMILES): C/C=C(/C1CCN(C(=O)c2cnn(-c3nn4cccc4c(=O)[nH]3)c2C)CC1)C(F)(F)F [Q-1065]
- IC50 [1]: 1 nM
- IC50 [2]: 58 nM
- IC50 [3]: 74 nM

Structure (SMILES): Cc1c(C(=O)N2CCC(C(O)C(F)(F)F)CC2)cnn1-c1nn2cccc2c(=O)[nH]1 (stereo not drawn) [Q-1066]
- IC50 [1]: 1 nM
- IC50 [2]: 300 nM
- IC50 [3]: 82 nM

Structure (SMILES): Cc1c(C(=O)N2CCC(C(O)C(F)(F)F)CC2)cnn1-c1nc2c(c(=O)[nH]1)CCC2 (stereo not drawn) [Q-1067]
- IC50 [1]: 2 nM
- IC50 [2]: 100 nM
- IC50 [3]: 160 nM

Structure (SMILES): Cc1c(C(=O)N2CCC(c3nc(C#N)co3)CC2)cnn1-c1nn2cccc2c(=O)[nH]1 [Q-1127]
- IC50 [1]: 1 nM
- Behavior Significant effect ([4]; 20 mpk QD 3 days): yes
- IC50 [3]: 15 nM

Structure (SMILES): Cc1c(C(=O)N2CC(c3ccnc(F)c3)C2)cnn1-c1nn2cccc2c(=O)[nH]1 [Q-1133]
- IC50 [1]: 2 nM
- Behavior Significant effect ([5]; 10 mpk QD 3 days): yes
- IC50 [3]: 22 nM

Structure (SMILES): Cc1c(C(=O)N2CCN(C3CC(F)(F)C3)CC2)cnn1-c1nn2cccc2c(=O)[nH]1 [Q-1169]
- IC50 [1]: 1 nM
- Behavior Significant effect ([5]; 9.5 mpk QD 3 days): yes
- IC50 [3]: 77 nM

Structure (SMILES): Cc1c(C(=O)N2CC3CC(C2)N3C2CC2)cnn1-c1nn2cccc2c(=O)[nH]1 [Q-1195]
- IC50 [1]: 2 nM
- Behavior Significant effect ([4]; 15 mpk QD 3 days): yes
- IC50 [3]: 47 nM

Structure (SMILES): Cc1c(C(=O)N2CCN(C3CCC3(F)F)CC2)nnn1-c1nn2cccc2c(=O)[nH]1 (stereo not drawn) [Q-1204]
- IC50 [1]: 1 nM
- Behavior Significant effect ([4]; 10 mpk QD 3 days): yes
- IC50 [3]: 17 nM

Structure (SMILES): Cc1c(C(=O)N2CCC2c2ccc(F)nc2)cnn1-c1nn2cccc2c(=O)[nH]1 (stereo not drawn) [Q-1242]
- IC50 [1]: 5 nM
- Behavior Significant effect ([4]; 10 mpk QD 3 days): yes
- IC50 [3]: 32 nM

Structure (SMILES): Cc1c(C(=O)N2CCN(C3CC(F)(F)C3)CC2)nnn1-c1nn2cccc2c(=O)[nH]1 [Q-1245]
- IC50 [1]: 1 nM
- Behavior Significant effect ([5]; 9.5 mpk QD 3 days): yes
- IC50 [3]: 26 nM
